Results published in BindingDB's records for doi:10.1016/j.ejmech.2011.02.067 (University of Lisbon, 2011).

Experiment: Inhibition of human recombinant caspase-3 expressed in Saccharomyces cerevisiae CG379 assessed as growth stimulation after 2 days

IC50: 35.3 µM
SMILES: CC(C)[C@H](NC(=O)OCc1ccccc1)C(=O)N[C@H](C=CS(C)(=O)=O)CC(=O)O [(S)-3-((S)-2-(benzyloxycarbonylamino)-3-methylbutanamido)-5-(methylsulfonyl)pent-4-enoic acid]
